Assay results reported in ChEMBL document CHEMBL4818987, “Recent advances of podophyllotoxin/epipodophyllotoxin hybrids in anticancer activity, mode of action, and structure-activity relationship: An update (2010-2020)” (Eur J Med Chem, 2020).

Experiments:
HCT-116 [1] = test: Antiproliferative activity against human HCT116 cells incubated for 3 days by MTT assay; assay type: functional, cell-based; details: HCT-116, 72 h
A549 [2] = test: Potency index, ratio of etoposide IC50 to test compound IC50 for antiproliferative activity against human A549 cells; assay type: functional
HepG2 [3] = test: Potency index, ratio of etoposide IC50 to test compound IC50 for antiproliferative activity against human HepG2 cells; assay type: functional
HepG2 [4] = test: Antiproliferative activity against human HepG2 cells incubated for 3 days by MTT assay; assay type: functional, cell-based; details: HepG2, 72 h
HCT-116 [5] = test: Potency index, ratio of etoposide IC50 to test compound IC50 for antiproliferative activity against human HCT116 cells; assay type: functional
A549 [6] = test: Antiproliferative activity against human A549 cells incubated for 3 days by MTT assay; assay type: functional, cell-based; details: A549, 72 h
[7] = Cytotoxicity against human BEAS2B cells; assay type: cell-based; details: BEAS-2B cells
A549 [8] = test: Antiproliferative activity against human A549 cells incubated for 48 hrs by MTT assay; assay type: functional, cell-based; details: A549, 48 h
[9] = Selectivity index, ratio of CC50 for human BEAS2B cells to IC50 for human SW480 cells; assay type: toxicity; details: read-out: Ratio CC50/IC50
HL-60 = test: Antiproliferative activity against human HL-60 cells incubated for 48 hrs by MTT assay; assay type: functional, cell-based; details: HL-60, 48 h
SMMC-7721 = test: Antiproliferative activity against human SMMC-7721 cells incubated for 48 hrs by MTT assay; assay type: functional, cell-based; details: SMMC-7721, 48 h
SW480 = test: Antiproliferative activity against human SW480 cells incubated for 48 hrs by MTT assay; assay type: functional, cell-based; details: SW480, 48 h
[10] = Selectivity index, ratio of CC50 for human BEAS2B cells to IC50 for human SMMC7721 cells; assay type: toxicity; details: read-out: Ratio CC50/IC50
[11] = Selectivity index, ratio of CC50 for human BEAS2B cells to IC50 for human MCF7 cells; assay type: toxicity; details: read-out: Ratio CC50/IC50
[12] = Selectivity index, ratio of CC50 for human BEAS2B cells to IC50 for human A549 cells; assay type: toxicity; details: read-out: Ratio CC50/IC50
MCF7 = test: Antiproliferative activity against human MCF7 cells incubated for 48 hrs by MTT assay; assay type: functional, cell-based; details: MCF7, 48 h
[13] = Selectivity index, ratio of CC50 for human BEAS2B cells to IC50 for human HL60 cells; assay type: toxicity; details: read-out: Ratio CC50/IC50

COc1cc([C@@H]2c3cc4c(cc3[C@@H](NC(=S)NC(=O)c3ccccc3)[C@H]3COC(=O)[C@H]23)OCO4)cc(OC)c1OC
49: Ratio IC50 (A549 [2]) | Ratio IC50 (HepG2 [3]) | Ratio IC50 (HCT-116 [5])
100 nM: IC50 (HCT-116 [1]) | IC50 (HepG2 [4]) | IC50 (A549 [6])

CCCC(=O)OC[C@H]1O[C@@H](OC(COCc2cn([C@@H]3c4cc5c(cc4[C@@H](c4cc(OC)c(OC)c(OC)c4)[C@H]4C(=O)OC[C@@H]43)OCO5)nn2)COCc2cn([C@@H]3c4cc5c(cc4[C@@H](c4cc(OC)c(OC)c(OC)c4)[C@H]4C(=O)OC[C@@H]43)OCO5)nn2)[C@H](OC(=O)CCC)[C@@H](OC(=O)CCC)[C@@H]1OC(=O)CCC (some centres not stated)
430 nM: IC50 (A549 [8]) | IC50 (HL-60) | IC50 (SMMC-7721) | IC50 (SW480) | IC50 (MCF7)
15400 nM: CC50 [7]
4.3: selectivity ratio [9] | selectivity ratio [10] | selectivity ratio [11] | selectivity ratio [12] | selectivity ratio [13]
